Results published in patent US20100298141A1, “SUBSTITUTED PYRIDINE N-OXIDE HERBICIDES” (E. I. DU PONT DE NEMOURS AND COMPANY, priority 2007, published 2010).

Assays:
winter barley = assay: Test D preemergence test; assay type: in vivo, Hordeum vulgare
From the text: Seeds of plant species selected from annual bluegrass (Poa annua), blackgrass (Alopecurus myosuroides), downy bromegrass (Bromus tectorum), field violet (Viola arvensis), green foxtail (Setaria viridis), Italian ryegrass (Lolium multiflorum), littleseed canarygrass (Phalaris minor), spring wheat (Triticum aestivum), wild oat (Avena fatua), […]), winter barley (Hordeum vulgare), and winter wheat (Triticum aestivum) were planted and treated preemergence with test chemicals formulated in a non-phytotoxic solvent mixture which included a surfactant. […] A dash (-) response means no test result.

fall panicum = assay: Test G preemergence test; assay type: in vivo, Panicum dichotomiflorum; conditions: scale 0 to 100
lambsquarters = assay: Test G preemergence test; assay type: in vivo, Chenopodium album; conditions: scale 0 to 100
large crabgrass = assay: Test G preemergence test; assay type: in vivo, Digitaria sanguinalis; conditions: scale 0 to 100
soybean = assay: Test G preemergence test; assay type: in vivo, Glycine max; conditions: scale 0 to 100
sugarcane = assay: Test F pre-/postemergence test; assay type: in vivo, Saccharum officinarum; conditions: for Plant response rating, Sugarcane: preemergence, scale 0 to 100
From the text: Seeds of plant species selected from bermudagrass (Cynodon dactylon), Surinam grass (Brachiaria decumbens), large crabgrass (Digitaria sanguinalis), green foxtail (Setaria viridis), goosegrass (Eleusine indica), johnsongrass (Sorghum halepense), kochia (Kochia scoparia), pitted morningglory (Ipomoea lacunosa), purple nutsedge (Cyperus rotundus), common ragweed (Ambrosia elation), mustard (Brassica nigra), guineagrass (Panicum maximum), […] (Paspalum dilatatum), barnyardgrass (Echinochloa crus-galli), southern sandbur (Cenchrus echinatus), common sowthistle (Sonchus oleraceous), prickly […] spinosa), Italian ryegrass (Lolium multiflorum), common purslane (Portulaca oleracea), broadleaf signalgrass (Brachiaria platyphylla), common groundsel (Senecio vulgaris), common chickweed (Stellaria media), Virginia dayflower (Commelina virginica), annual bluegrass (Poa annua), naked crabgrass (Digitaria nuda), […] cochinchinensis), quackgrass (Elytrigia repens), Canada horseweed (Conyza canadensis), field bindweed (Convolvulus arvensis), […] (Bidens bipinnata), common mallow (Malva sylvestris), Russian thistle (Salsola kali), and sugarcane (Saccharum officinarum) were planted and treated preemergence with test chemicals formulated in a non-phytotoxic solvent mixture which included a surfactant. At a different time, sugarcane was treated with postemergence applications of some of the test chemicals formulated in the same manner. Plants were approximately 3- to 4-leaf stage for the postemergence treatments. Treated plants and controls were maintained in a greenhouse for 14 to 21 days, after which time all species were compared to controls and visually evaluated. […] A dash (-) response means no test result.

barnyardgrass = assay: Test B flooded paddy test; assay type: in vivo, Echinochloa crus-galli; conditions: Flood, 250 g ai/ha, 13 to 15 days; scale 0 to 100, 0 no effect, 100 complete control
From the text: At time of treatment, test pots were flooded to 3 cm above the soil surface, treated by application of test compounds directly to the paddy water, and then maintained at that water depth for the duration of the test. Treated plants and controls were maintained in a greenhouse for 13 to 15 days, after which time all species were compared to controls and visually evaluated. […] A dash (-) response means no test result.

ducksalad = assay: Test E flooded paddy test; assay type: in vivo, Heteranthera limosa; conditions: Flood, after 21 days, scale 0 to 100
From the text: (§1) Three plastic pots (ca. 16-cm diameter) per rate were partially filled with sterilized Tama silt loam soil comprising a 35:50:15 ratio of sand, silt and clay and 2.6% organic matter. Separate plantings for each of the three pots were as follows. Seeds from the U.S. of ducksalad (Heteranthera limosa), smallflower umbrella sedge (Cyperus difformis) and purple […] coccinea), were planted into one 16-cm pot for each rate. […] Seeds from the U.S. of barnyardgrass (Echinochloa crus-galli), late watergrass (Echinochloa oryzicola), early watergrass (Echinochloa oryzoides) and junglerice (Echinochloa colona) were planted into one 16-cm pot for each rate. Plantings were sequential so that crop and weed species were at the 2.0 to 2.5-leaf stage at time of treatment. Potted plants were grown in a greenhouse with day/night temperature settings of 30/27° C., and supplemental balanced lighting was provided to maintain a 16-hour photoperiod. Test pots were maintained in the greenhouse until test completion. At time of treatment, test pots were flooded to 3 cm above the soil surface, treated by application of test compounds directly to the paddy water, and then maintained at that water depth for the duration of the test. Effects of treatments on rice and weeds were visually evaluated by comparison to untreated controls after 21 days. […] A dash (-) response means no test result.

[1] = tested on: water seeded rice seedlings; assay: Test E flooded paddy test; assay type: in vivo, Oryza sativa cv. ‘Japonica -M202’; conditions: Flood, after 21 days, scale 0 to 100
From the text: as §1

[2] = tested on: transplanted rice seedlings; assay: Test E flooded paddy test; assay type: in vivo, Oryza sativa cv. ‘Japonica-M202’; conditions: Flood, after 21 days, scale 0 to 100
From the text: as §1

junglerice = assay: Test E flooded paddy test; assay type: in vivo, Echinochloa colona; conditions: Flood, after 21 days, scale 0 to 100
From the text: as §1

[3] = Preemergence, 62 g ai/ha, scale 0 to 100
[4] = Preemergence, 125 g ai/ha, scale 0 to 100
[5] = Preemergence, 31 g ai/ha, scale 0 to 100
[6] = preemergence, 250 g ai/ha, scale 0 (no effect) to 100 (complete control)

Row | SMILES | Plant response rating, Barley (winter barley; [3]) | Plant response rating, Barley (winter barley; [4]) | Plant response rating, Barley (winter barley; [5]) | Plant response rating, Barley (winter barley; [6]) | Plant response rating, Fall Panicum (fall panicum; 31 g ai/ha) | Plant response rating, Fall Panicum (fall panicum; 62 g ai/ha) | Plant response rating, Fall Panicum (fall panicum; 125 g ai/ha) | Plant response rating, Fall Panicum (fall panicum; 250 g ai/ha) | Plant response rating, Lambsquarters (lambsquarters; 31 g ai/ha) | Plant response rating, Lambsquarters (lambsquarters; 62 g ai/ha) | Plant response rating, Lambsquarters (lambsquarters; 125 g ai/ha) | Plant response rating, Lambsquarters (lambsquarters; 250 g ai/ha) | Plant response rating, Crabgrass, Large (large crabgrass; 31 g ai/ha) | Plant response rating, Crabgrass, Large (large crabgrass; 62 g ai/ha) | Plant response rating, Crabgrass, Large (large crabgrass; 125 g ai/ha) | Plant response rating, Crabgrass, Large (large crabgrass; 250 g ai/ha) | Plant response rating, Soybean (soybean; 31 g ai/ha) | Plant response rating, Soybean (soybean; 62 g ai/ha) | Plant response rating, Soybean (soybean; 125 g ai/ha) | Plant response rating, Soybean (soybean; 250 g ai/ha) | further results
1 | Cn1nc(C(F)(F)F)c(C(Cl)S(=O)(=O)c2cccc[n+]2[O-])c1Cl (centres unmarked) [Compound 12] | 0 | 0 | 0 | 0 | 90 | 100 | 100 | 100 | 0 | 0 | 0 | 15 | 15 | 60 | 95 | 100 | 0 | 0 | 0 | 0 | 
2 | Cn1nc(C(F)(F)F)c(C[S+]([O-])c2cccc[n+]2[O-])c1OCC(F)(F)F (racemic) [Compound 28] |  |  |  |  |  |  |  |  |  |  |  |  |  |  |  |  |  |  |  |  | Plant response rating, Sugarcane (sugarcane; 125 g ai/ha): 17; Plant response rating, Sugarcane (sugarcane; 500 g ai/ha): 68
3 | Cc1cc[n+]([O-])c(S(=O)(=O)C(C)c2c(C(F)(F)F)nn(C)c2Cl)c1 (racemic) [Compound 14] | 0 | 0 | 0 | 15 | 15 | 50 | 70 | 100 | 0 | 0 | 0 | 40 | 0 | 45 | 100 | 100 | 0 | 0 | 0 | 0 | 
4 | Cn1nc(C(F)(F)F)c(CS(=O)(=O)c2ccc(Cl)c[n+]2[O-])c1OC(F)F [Compound 7] | 0 | 0 | 0 | 0 | 0 | 80 | 90 | 100 | 0 | 0 | 0 | 15 | 0 | 0 | 20 | 90 | 0 | 0 | 0 | 0 | Plant response rating, Barnyardgrass (barnyardgrass): 80
5 | C#CCOc1c(C[S+]([O-])c2cccc[n+]2[O-])c(C(F)(F)F)nn1C (centres unmarked) [Compound 76] |  |  |  |  |  |  |  |  |  |  |  |  |  |  |  |  |  |  |  |  | Plant response rating, Ducksalad (ducksalad; 64 g ai/ha): 40; Plant response rating, Ducksalad (ducksalad; 125 g ai/ha): 40; Plant response rating, Ducksalad (ducksalad; 250 g ai/ha): 40; Plant response rating, Ducksalad (ducksalad; 500 g ai/ha): 95; Plant response rating, Ducksalad (ducksalad; 1000 g ai/ha): 95; Plant response rating, Rice, Waterseeded ([1]; 64 g ai/ha): 10; Plant response rating, Rice, Waterseeded ([1]; 125 g ai/ha): 10; Plant response rating, Rice, Waterseeded ([1]; 1000 g ai/ha): 40; Plant response rating, Rice, Transplanted ([2]; 64 g ai/ha): 10; Plant response rating, Rice, Transplanted ([2]; 125 g ai/ha): 10; Plant response rating, Rice, Transplanted ([2]; 1000 g ai/ha): 40; Plant response rating, Junglerice (junglerice; 64 g ai/ha): 0; Plant response rating, Junglerice (junglerice; 125 g ai/ha): 60; Plant response rating, Junglerice (junglerice; 250 g ai/ha): 75; Plant response rating, Junglerice (junglerice; 500 g ai/ha): 100; Plant response rating, Junglerice (junglerice; 1000 g ai/ha): 100
6 | Cn1nc(C(F)(F)F)c(C[S+]([O-])c2cc(Br)cc[n+]2[O-])c1Cl (racemic) [Compound 35] |  |  |  |  |  |  |  |  |  |  |  |  |  |  |  |  |  |  |  |  | Plant response rating, Ducksalad (ducksalad; 16 g ai/ha): 0; Plant response rating, Ducksalad (ducksalad; 32 g ai/ha): 40; Plant response rating, Ducksalad (ducksalad; 64 g ai/ha): 50; Plant response rating, Ducksalad (ducksalad; 125 g ai/ha): 60; Plant response rating, Ducksalad (ducksalad; 250 g ai/ha): 100; Plant response rating, Rice, Waterseeded ([1]; 16 g ai/ha): 0; Plant response rating, Rice, Waterseeded ([1]; 32 g ai/ha): 0; Plant response rating, Rice, Waterseeded ([1]; 64 g ai/ha): 0; Plant response rating, Rice, Waterseeded ([1]; 125 g ai/ha): 20; Plant response rating, Rice, Waterseeded ([1]; 250 g ai/ha): 30; Plant response rating, Rice, Transplanted ([2]; 16 g ai/ha): 0; Plant response rating, Rice, Transplanted ([2]; 32 g ai/ha): 0; Plant response rating, Rice, Transplanted ([2]; 64 g ai/ha): 0; Plant response rating, Rice, Transplanted ([2]; 125 g ai/ha): 15; Plant response rating, Rice, Transplanted ([2]; 250 g ai/ha): 15; Plant response rating, Junglerice (junglerice; 16 g ai/ha): 0; Plant response rating, Junglerice (junglerice; 32 g ai/ha): 0; Plant response rating, Junglerice (junglerice; 64 g ai/ha): 0; Plant response rating, Junglerice (junglerice; 125 g ai/ha): 0; Plant response rating, Junglerice (junglerice; 250 g ai/ha): 40
7 | Cc1cc[n+]([O-])c(S(=O)(=O)C(Cl)c2c(C(F)(F)F)nn(C)c2Cl)c1 (racemic) [Compound 22] | 0 | 0 | 0 | 0 | 85 | 85 | 90 | 100 | 0 | 0 | 0 | 80 | 60 | 60 | 95 | 100 | 0 | 0 | 0 | 0 | 
8 | Cc1cc[n+]([O-])c([S+]([O-])Cc2c(C(F)(F)F)nn(C)c2OCC(F)(F)F)c1 (racemic) [Compound 30] |  |  |  |  |  |  |  |  |  |  |  |  |  |  |  |  |  |  |  |  | Sugarcane plant response rating (sugarcane; 250 g ai/ha, postemergence, scale 0 to 100 (0 no effect, 100 complete control)): 33; Plant response rating, Sugarcane (sugarcane; 250 g ai/ha): 12
9 | Cn1nc(C(F)(F)F)c(C[S+]([O-])c2ccc(Cl)c[n+]2[O-])c1OC(F)F (centres unmarked) [Compound 6] |  |  |  |  |  |  |  |  |  |  |  |  |  |  |  |  |  |  |  |  | Plant response rating, Barnyardgrass (barnyardgrass): 80
